Experimental data taken from PubChem BioAssay AID1259411 (Chemical Carcinogenesis Research Information System (CCRIS), 2018).
Active and inactive are the calls of the source. The rule behind the calls is not given here.

Test system: rodent carcinogenicity bioassays, tumor incidence
Assay: CCRIS carcinogenicity studies
Method in brief: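 Archive of carcinogenicity, mutagenicity, tumor promotion and tumor inhibition results drawn from journals, NCI reports and other sources, expert-reviewed; covers 1985-2011 and is no longer updated.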

`CCCCCC(O)/C=C/C=O` (stereo unspecified) was tested, and the carcinogen call (Species: MOUSE, Strain/Sex: B6C3F1/FEMALE, Route: INTRAPERITONEAL, Dose: 0, 750 NMOL TOTAL DOSE, 1/3 AND 2/3 OF THE TOTAL DOSE ADMINISTERED AT 8 AND 15 DAYS OF AGE RESPECTIVELY, ANIMALS TERMINA) was “inactive; negative”, the carcinogen call (Species: MOUSE, Strain/Sex: B6C3F1/FEMALE, Route: INTRAPERITONEAL, Dose: 0, 1500 NMOL TOTAL DOSE, 1/3 AND 2/3 OF THE TOTAL DOSE ADMINISTERED AT 8 AND 15 DAYS OF AGE RESPECTIVELY, ANIMALS TERMIN) was “inactive; negative” and the carcinogen call (Species: MOUSE, Strain/Sex: B6C3F1/MALE, Route: INTRAPERITONEAL, Dose: 0, 750 NMOL TOTAL DOSE, 1/3 AND 2/3 OF THE TOTAL DOSE ADMINISTERED AT 8 AND 15 DAYS OF AGE RESPECTIVELY, ANIMALS TERMINA) was “inactive; negative”. The carcinogen call (Species: MOUSE, Strain/Sex: B6C3F1/MALE, Route: INTRAPERITONEAL, Dose: 0, 1500 NMOL TOTAL DOSE, 1/3 AND 2/3 OF THE TOTAL DOSE ADMINISTERED AT 8 AND 15 DAYS OF AGE RESPECTIVELY, ANIMALS TERMIN) was “inactive; negative”, the carcinogen call (Species: MOUSE, Strain/Sex: CD-1/FEMALE, Route: INTRAPERITONEAL, Dose: 0, 50, 100, 200 NMOL/MOUSE (TOTAL DOSE) ADMINISTERED IN 3 DOSES ON DAY 1, 8 AND 15 OF STUDY (STUDY DURATION: 6 WK), Dose: 0, 50, 100, 200 NMOL/MOUSE (TOTAL DOSE) ADMINISTERED IN 3 DOSES ON DAY 1, 8 AND 15 OF STUDY (STUDY DURATION: 6 WK)) was “inactive; negative” and the carcinogen call (Species: MOUSE, Strain/Sex: CD-1/MALE, Route: INTRAPERITONEAL, Dose: 0, 50, 100, 200 NMOL/MOUSE (TOTAL DOSE) ADMINISTERED IN 3 DOSES ON DAY 1, 8 AND 15 OF STUDY (STUDY DURATION: 6 WK), Dose: 0, 50, 100, 200 NMOL/MOUSE (TOTAL DOSE) ADMINISTERED IN 3 DOSES ON DAY 1, 8 AND 15 OF STUDY (STUDY DURATION: 6 WK)) was “inactive; negative”.

With `NC=O` the carcinogen call (Species: Mouse, Strain/Sex: B5C3F1/Female, Route: Oral, Dose: 0, 20, 40, 80 mg/kg in deioninzed water, by gavage, 5 d/wk for 104-105 wk, Tumor Site: Type of Lesion: Liver: hepatocellular adenoma and carcinoma (combined)) was “active; positive, authors described results as equivocal evidence of carcinogenic activi”, the carcinogen call (Species: Mouse, Strain/Sex: B6C3F1/Male, Route: Oral, Dose: 0, 20, 40, 80 mg/kg in deioninzed water, by gavage, 5 d/wk for 104-105 wk, Tumor Site: Type of Lesion: Liver: hemangiosarcoma) was “active; positive, authors described results as clear evidence of carcinogenic activity” and the carcinogen call (Species: Rat, Strain/Sex: F344/N/Female, Route: Oral, Dose: 0, 20, 40, 80 mg/kg in deioninzed water, by gavage, 5 d/wk for 104-105 wk) was “inactive; negative”. The carcinogen call (Species: Rat, Strain/Sex: F344/N/Male, Route: Oral, Dose: 0, 20, 40, 80 mg/kg in deioninzed water, by gavage, 5 d/wk for 104-105 wk) was “inactive; negative”.

In the case of `NCCCCCCCCCCC(=O)O`, the carcinogen call (Species: MOUSE, Strain/Sex: B6C3F1/FEMALE, Route: ORAL, Dose: 0, 7500, 15000 PPM IN DIET FOR 103 WK (STUDY DURATION: 103 WK), Dose: 0, 7500, 15000 PPM IN DIET FOR 103 WK (STUDY DURATION: 103 WK)) is reported as “inactive; negative”, the carcinogen call (Species: MOUSE, Strain/Sex: B6C3F1/MALE, Route: ORAL, Dose: 0, 7500, 15000 PPM IN DIET FOR 103 WK (STUDY DURATION: 103 WK), Dose: 0, 7500, 15000 PPM IN DIET FOR 103 WK (STUDY DURATION: 103 WK), Tumor Site: Type of Lesion: HEMATOPOIETIC SYSTEM: MALIGNANT LYMPHOMA) is reported as “equivocal” and the carcinogen call (Species: RAT, Strain/Sex: F344/FEMALE, Route: ORAL, Dose: 0, 7500, 15000 PPM IN DIET FOR 104 WK (STUDY DURATION: 104 WK), Dose: 0, 7500, 15000 PPM IN DIET FOR 104 WK (STUDY DURATION: 104 WK)) is reported as “inactive; negative”. The carcinogen call (Species: RAT, Strain/Sex: F344/MALE, Route: ORAL, Dose: 0, 7500, 15000 PPM IN DIET FOR 104 WK (STUDY DURATION: 104 WK), Dose: 0, 7500, 15000 PPM IN DIET FOR 104 WK (STUDY DURATION: 104 WK), Tumor Site: Type of Lesion: LIVER: NEOPLASTIC NODULE, URINARY BLADDER: TRANSITIONAL CELL CARCINOMA) was “active; positive”.

In the case of `C[C@]12CC[C@@H]3c4ccc(O)cc4CC[C@H]3[C@@H]1CCC2=O`, the carcinogen call (Species: HAMSTER, Route: SUBCUTANEOUS, SUBCUTANEOUS IMPLANT, Tumor Site: Type of Lesion: KIDNEY) is reported as “active; positive”, the carcinogen call (Species: HAMSTER, Strain/Sex: SYRIAN/MALE, Route: SUBCUTANEOUS IMPLANT, Dose: 0, 20 MG PELLET, SINGLE DOSE, Tumor Site: Type of Lesion: KIDNEY) is reported as “active; positive” and the carcinogen call (Species: HAMSTER, Strain/Sex: SYRIAN/MALE, Route: SUBCUTANEOUS IMPLANT, Dose: 0, 20 MG IN PELLETS IMPLANTED EVERY 2.5 MO FOR 9 MO (STUDY DURATION: 9 MO), Tumor Site: Type of Lesion: KIDNEY: TUMOR) is reported as “active; positive”. For the same molecule, the carcinogen call (Species: HAMSTER, Strain/Sex: SYRIAN/MALE, Route: SUBCUTANEOUS, Tumor Site: Type of Lesion: KIDNEY, PITUITARY GLAND: ADENOMA) was “active; positive”, the carcinogen call (Species: HUMAN, Tumor Site: Type of Lesion: UTERUS (ENDOMETRIUM)) was “active; positive” and the carcinogen call (Species: MOUSE, Route: ORAL, SUBCUTANEOUS, DERMAL, SUBCUTANEOUS IMPLANT, Tumor Site: Type of Lesion: MAMMARY GLAND) was “active; positive”. The carcinogen call (Species: MOUSE, Strain/Sex: C3H, C3HE(MTV-)/MALE, Route: ORAL, Dose: 125, 2000 UG/L IN DRINKING WATER, Tumor Site: Type of Lesion: MAMMARY GLAND) was “active; positive”, the carcinogen call (Species: MOUSE, Strain/Sex: C3R3(MTV+)/MALE, Route: DIET, Dose: 0, 0.06, 0.6, 6 UG/D, Tumor Site: Type of Lesion: MAMMARY GLAND) was “active; positive” and the carcinogen call (Species: MOUSE, Strain/Sex: GRS/AFIB(MTV+)/FEMALE, Route: ORAL, Dose: 0, 0.5 UG/ML FOR 14-25 WK IN DRINKING WATER, Tumor Site: Type of Lesion: UTERUS) was “active; positive”. For the same molecule, the carcinogen call (Species: RAT, Route: SUBCUTANEOUS, SUBCUTANEOUS IMPLANT, Tumor Site: Type of Lesion: ADRENAL GLAND, KIDNEY, MAMMARY GLAND, PITUITARY GLAND, URINARY BLADDER, Tumor Site: Type of Lesion: ADRENAL GLAND, KIDNEY, MAMMARY GLAND, PITUITARY GLAND, URINARY BLADDER) was “active; positive”, the carcinogen call (Species: RAT, Strain/Sex: AUGUST/MALE,FEMALE, Route: SUBCUTANEOUS IMPLANT, Dose: 8-12 MG PELLET, SINGLE DOSE, Tumor Site: Type of Lesion: MAMMARY GLAND) was “active; positive” and the carcinogen call (Species: RAT, Strain/Sex: AXC/MALE,FEMALE, Route: SUBCUTANEOUS IMPLANT, Dose: 8-12 MG PELLET, SINGLE DOSE, Tumor Site: Type of Lesion: MAMMARY GLAND) was “active; positive”. For the same molecule, the carcinogen call (Species: RAT, Strain/Sex: COPENHAGEN/MALE,FEMALE, Route: SUBCUTANEOUS IMPLANT, Dose: 8-12 MG PELLET, SINGLE DOSE, Tumor Site: Type of Lesion: URINARY BLADDER) was “active; positive” and the carcinogen call (Species: RAT, Strain/Sex: F344/MALE,FEMALE, Route: SUBCUTANEOUS IMPLANT, Dose: 8-12 MG PELLET, SINGLE DOSE, Tumor Site: Type of Lesion: MAMMARY GLAND) was “active; positive”.

For `O[C@@H]1C=Cc2c(ccc3cc4ccccc4nc23)[C@H]1O`, the carcinogen call (Species: MOUSE, Strain/Sex: SWISS/FEMALE, Route: INTRAPERITONEAL, Dose: 0, 1.05 UMOL GIVEN AS 150 NMOL IN 5 µL DMSO WITHIN 24 HR OF BIRTH, 300 NMOL IN 10 µL DMSO ON D 8 OF LIFE, AND 600 NMOL I, Tumor Site: Type of Lesion: LUNG: ADENOMA) was “active; positive” and the carcinogen call (Species: MOUSE, Strain/Sex: SWISS/MALE, Route: INTRAPERITONEAL, Dose: 0, 1.05 UMOL GIVEN AS 150 NMOL IN 5 µL DMSO WITHIN 24 HR OF BIRTH, 300 NMOL IN 10 µL DMSO ON D 8 OF LIFE, AND 600 NMOL I, Tumor Site: Type of Lesion: LUNG: ADENOMA, LIVER: NEOPLASTIC NODULE) was “active; positive”.

For `C[C@H]1[C@H](c2ccc(Cl)cc2)SC(=O)N1C(=O)NC1CCCCC1`, the carcinogen call (Species: Rat, Strain/Sex: Fischer 344/Female (70/Group), Route: Oral, Dose: 0, 60, 430, 3000 ppm in diet for 24 mo, study duration 24 mo, Dose: 0, 60, 430, 3000 ppm in diet for 24 mo, study duration 24 mo) was “inactive; negative” and the carcinogen call (Species: Rat, Strain/Sex: Fischer 344/Male (70/Group), Route: Oral, Dose: 0, 60, 430, 3000 ppm in diet for 24 mo, study duration 24 mo, Dose: 0, 60, 430, 3000 ppm in diet for 24 mo, study duration 24 mo, Tumor Site: Type of Lesion: Mammary gland: fibroadenoma (0, 1, 2, 6)) was “active; positive. (department of pesticides regulation reviewer describes as possible ad”.

`CC(=O)Nc1ccc(N=Nc2cc(C)ccc2O)cc1` was tested, and the carcinogen call (Species: MOUSE, Strain/Sex: B6C3F1/FEMALE, Route: ORAL, Dose: 0, 2500, 5000 PPM IN DIET, Dose: 0, 2500, 5000 PPM IN DIET, Tumor Site: Type of Lesion: LIVER: HEPATOCELLULAR ADENOMA) was “active; positive”, the carcinogen call (Species: MOUSE, Strain/Sex: B6C3F1/MALE, Route: ORAL, Dose: 0, 2500, 5000 PPM IN DIET, Dose: 0, 2500, 5000 PPM IN DIET) was “inactive; negative” and the carcinogen call (Species: RAT, Strain/Sex: F344/FEMALE, Route: ORAL, Dose: 0, 5000, 10000 PPM IN DIET, Dose: 0, 5000, 10000 PPM IN DIET) was “inactive; negative”. For the same molecule, the carcinogen call (Species: RAT, Strain/Sex: F344/MALE, Route: ORAL, Dose: 0, 5000, 10000 PPM IN DIET, Dose: 0, 5000, 10000 PPM IN DIET, Tumor Site: Type of Lesion: LIVER: NEOPLASTIC NODULE) was “active; positive”.
